Assay results: article PMC7180948, “New Insights into 4-Anilinoquinazolines as Inhibitors of Cardiac Troponin I–Interacting Kinase (TNNi3K)” (Molecules, 2020)

Assays:
Test in all cases: biochemical
Design in all cases: KINOMEscan competition binding panel (Eurofins DiscoverX), single concentration, percent inhibition
Details in all cases: read-out: 15 at 1 µM % inhibition
CDC2L1 = molecular target: T1, CDC2L1 (Homo sapiens, UniProt P21127)
T1 construct: gene CDK11B
Procedure, shortened: (§1)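 Binding was profiled in the KINOMEscan panel of over 400 human kinases, with each compound tested at a single concentration of 1 µM to map selectivity.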

ASK2 = molecular target: T2, ASK2 (Homo sapiens, UniProt O95382)
T2 construct: gene MAP3K6
Procedure, shortened: as §1

AKT3 = AKT3 (Homo sapiens, UniProt Q9Y243)
Procedure, shortened: as §1

IRAK3 = IRAK3 (Homo sapiens, UniProt Q9Y616)
Procedure, shortened: as §1

MST4 = molecular target: T3, MST4 (Homo sapiens, UniProt Q9P289)
T3 construct: gene STK26
Procedure, shortened: as §1

CAMK2B = CAMK2B (Homo sapiens, UniProt Q13554)
Procedure, shortened: as §1

TIE1 = TIE1 (Homo sapiens, UniProt P35590)
Procedure, shortened: as §1

MRCKB = molecular target: T4, MRCKB (Homo sapiens, UniProt Q9Y5S2)
T4 construct: gene CDC42BPB
Procedure, shortened: as §1

FYN = FYN (Homo sapiens, UniProt P06241)
Procedure, shortened: as §1

p38-delta = molecular target: T5, p38-delta (Homo sapiens, UniProt O15264)
T5 construct: gene MAPK13
Procedure, shortened: as §1

PIM3 = PIM3 (Homo sapiens, UniProt Q86V86)
Procedure, shortened: as §1

SIK2 = SIK2 (Homo sapiens, UniProt Q9H0K1)
SIK2, sequence (Q9H0K1 whole entry): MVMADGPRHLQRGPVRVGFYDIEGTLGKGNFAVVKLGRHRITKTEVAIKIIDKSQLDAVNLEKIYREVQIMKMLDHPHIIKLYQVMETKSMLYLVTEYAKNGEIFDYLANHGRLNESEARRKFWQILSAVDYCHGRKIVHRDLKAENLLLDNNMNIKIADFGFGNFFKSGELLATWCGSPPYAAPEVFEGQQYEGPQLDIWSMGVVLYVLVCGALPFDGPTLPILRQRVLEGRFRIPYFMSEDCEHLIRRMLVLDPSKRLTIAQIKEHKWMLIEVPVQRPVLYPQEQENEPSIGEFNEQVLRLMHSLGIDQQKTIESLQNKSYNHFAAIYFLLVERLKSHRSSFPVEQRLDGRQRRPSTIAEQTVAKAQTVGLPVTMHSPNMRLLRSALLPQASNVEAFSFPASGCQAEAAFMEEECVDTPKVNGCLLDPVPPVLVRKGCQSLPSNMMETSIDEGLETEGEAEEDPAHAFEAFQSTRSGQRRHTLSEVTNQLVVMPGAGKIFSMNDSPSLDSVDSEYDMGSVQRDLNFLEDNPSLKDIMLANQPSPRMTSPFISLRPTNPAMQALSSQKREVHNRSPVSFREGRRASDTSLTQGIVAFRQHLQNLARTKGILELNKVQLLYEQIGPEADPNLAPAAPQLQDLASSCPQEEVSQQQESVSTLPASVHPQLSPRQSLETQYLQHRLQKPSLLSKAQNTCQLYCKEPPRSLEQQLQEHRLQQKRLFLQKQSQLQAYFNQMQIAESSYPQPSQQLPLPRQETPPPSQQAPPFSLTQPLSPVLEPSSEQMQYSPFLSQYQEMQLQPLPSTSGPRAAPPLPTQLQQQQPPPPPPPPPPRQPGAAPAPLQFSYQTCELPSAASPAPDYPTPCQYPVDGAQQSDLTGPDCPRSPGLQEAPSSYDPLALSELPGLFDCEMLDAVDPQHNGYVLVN
Procedure, shortened: as §1

TNK2 = TNK2 (Homo sapiens, UniProt Q07912)
TNK2, sequence (Q07912 whole entry): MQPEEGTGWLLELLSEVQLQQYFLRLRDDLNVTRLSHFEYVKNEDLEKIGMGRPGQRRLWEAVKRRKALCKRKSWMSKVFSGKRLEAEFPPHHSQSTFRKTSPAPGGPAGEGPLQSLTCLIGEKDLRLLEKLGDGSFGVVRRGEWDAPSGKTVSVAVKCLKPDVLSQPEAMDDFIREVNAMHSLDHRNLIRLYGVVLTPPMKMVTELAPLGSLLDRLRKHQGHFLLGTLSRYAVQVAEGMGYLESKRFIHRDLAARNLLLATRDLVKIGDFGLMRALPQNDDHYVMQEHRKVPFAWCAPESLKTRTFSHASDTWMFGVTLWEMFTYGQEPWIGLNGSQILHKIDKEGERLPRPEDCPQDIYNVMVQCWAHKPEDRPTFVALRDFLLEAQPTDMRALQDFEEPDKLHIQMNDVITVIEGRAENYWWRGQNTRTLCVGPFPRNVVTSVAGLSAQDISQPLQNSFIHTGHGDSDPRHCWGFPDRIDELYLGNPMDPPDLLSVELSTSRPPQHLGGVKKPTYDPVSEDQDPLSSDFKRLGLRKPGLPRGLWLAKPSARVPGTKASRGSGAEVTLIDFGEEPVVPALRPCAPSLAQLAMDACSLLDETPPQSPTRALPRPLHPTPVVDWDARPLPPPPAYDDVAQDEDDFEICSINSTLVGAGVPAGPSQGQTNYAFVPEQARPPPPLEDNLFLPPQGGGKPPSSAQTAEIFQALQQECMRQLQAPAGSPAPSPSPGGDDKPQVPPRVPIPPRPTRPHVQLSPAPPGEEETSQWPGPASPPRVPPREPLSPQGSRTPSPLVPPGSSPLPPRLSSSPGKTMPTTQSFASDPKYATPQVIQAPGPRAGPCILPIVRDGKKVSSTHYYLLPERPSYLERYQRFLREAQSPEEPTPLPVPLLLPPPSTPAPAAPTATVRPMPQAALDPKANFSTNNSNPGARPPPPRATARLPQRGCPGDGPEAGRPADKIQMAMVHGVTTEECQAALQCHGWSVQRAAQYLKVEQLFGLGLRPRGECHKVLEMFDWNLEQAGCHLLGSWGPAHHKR
Procedure, shortened: as §1

PAK2 = PAK2 (Homo sapiens, UniProt Q13177)
PAK2, sequence (Q13177 whole entry): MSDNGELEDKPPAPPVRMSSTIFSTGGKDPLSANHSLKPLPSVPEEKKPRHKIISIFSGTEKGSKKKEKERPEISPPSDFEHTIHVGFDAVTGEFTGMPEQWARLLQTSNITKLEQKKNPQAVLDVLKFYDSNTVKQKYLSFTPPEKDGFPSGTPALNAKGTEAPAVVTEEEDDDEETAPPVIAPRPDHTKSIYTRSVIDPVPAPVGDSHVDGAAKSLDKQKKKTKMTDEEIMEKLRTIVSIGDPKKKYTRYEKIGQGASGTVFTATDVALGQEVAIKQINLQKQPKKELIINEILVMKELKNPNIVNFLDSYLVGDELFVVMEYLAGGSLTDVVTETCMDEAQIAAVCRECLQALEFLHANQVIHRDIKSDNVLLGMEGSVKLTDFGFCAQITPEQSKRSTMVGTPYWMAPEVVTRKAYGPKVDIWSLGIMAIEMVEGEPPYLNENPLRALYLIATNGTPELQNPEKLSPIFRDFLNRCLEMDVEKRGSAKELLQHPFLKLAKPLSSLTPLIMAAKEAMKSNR
Procedure, shortened: as §1

MARK3 = MARK3 (Homo sapiens, UniProt P27448)
Procedure, shortened: as §1

BRAF(V600E) = BRAF(V600E) (Homo sapiens, UniProt P15056, V600E)
BRAF(V600E), sequence (P15056 whole entry V600E): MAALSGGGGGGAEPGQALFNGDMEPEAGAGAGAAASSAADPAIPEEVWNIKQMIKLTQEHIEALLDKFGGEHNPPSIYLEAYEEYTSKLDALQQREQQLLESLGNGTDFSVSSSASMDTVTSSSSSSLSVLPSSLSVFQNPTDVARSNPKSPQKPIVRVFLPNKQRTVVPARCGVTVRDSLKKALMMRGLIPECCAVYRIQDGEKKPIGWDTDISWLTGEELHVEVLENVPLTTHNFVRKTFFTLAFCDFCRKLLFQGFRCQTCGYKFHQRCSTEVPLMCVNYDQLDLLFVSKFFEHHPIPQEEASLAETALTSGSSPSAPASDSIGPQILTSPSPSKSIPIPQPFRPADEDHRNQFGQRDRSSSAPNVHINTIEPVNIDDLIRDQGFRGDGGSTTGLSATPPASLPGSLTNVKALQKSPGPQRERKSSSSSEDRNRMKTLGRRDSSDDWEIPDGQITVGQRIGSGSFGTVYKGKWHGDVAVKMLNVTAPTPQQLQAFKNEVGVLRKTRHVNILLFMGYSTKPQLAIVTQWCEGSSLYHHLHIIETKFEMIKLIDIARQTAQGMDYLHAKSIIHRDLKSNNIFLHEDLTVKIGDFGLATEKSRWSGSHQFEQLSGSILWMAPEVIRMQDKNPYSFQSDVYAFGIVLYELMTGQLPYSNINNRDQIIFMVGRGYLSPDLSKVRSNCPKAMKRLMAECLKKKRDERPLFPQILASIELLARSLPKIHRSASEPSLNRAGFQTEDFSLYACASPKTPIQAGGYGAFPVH
Procedure, shortened: as §1

[1] = molecular target: T6, ABL1(F317L)-nonphosphorylated (Homo sapiens, UniProt P00519, F317L)
T6 construct: nonphosphorylated
Procedure, shortened: as §1

[2] = molecular target: EGFR(L747-E749del, A750P) (Homo sapiens, UniProt P00533, A750P/DEL747-749)
Procedure, shortened: as §1

KIT(A829P) = KIT(A829P) (Homo sapiens, UniProt P10721, A829P)
Procedure, shortened: as §1

ULK2 = ULK2 (Homo sapiens, UniProt Q8IYT8)
Procedure, shortened: as §1

BLK = BLK (Homo sapiens, UniProt P51451)
Procedure, shortened: as §1

YANK1 = molecular target: T7, YANK1 (Homo sapiens, UniProt Q8WU08)
T7 construct: gene STK32A
Procedure, shortened: as §1

SRPK2 = SRPK2 (Homo sapiens, UniProt P78362)
SRPK2, sequence (P78362 whole entry): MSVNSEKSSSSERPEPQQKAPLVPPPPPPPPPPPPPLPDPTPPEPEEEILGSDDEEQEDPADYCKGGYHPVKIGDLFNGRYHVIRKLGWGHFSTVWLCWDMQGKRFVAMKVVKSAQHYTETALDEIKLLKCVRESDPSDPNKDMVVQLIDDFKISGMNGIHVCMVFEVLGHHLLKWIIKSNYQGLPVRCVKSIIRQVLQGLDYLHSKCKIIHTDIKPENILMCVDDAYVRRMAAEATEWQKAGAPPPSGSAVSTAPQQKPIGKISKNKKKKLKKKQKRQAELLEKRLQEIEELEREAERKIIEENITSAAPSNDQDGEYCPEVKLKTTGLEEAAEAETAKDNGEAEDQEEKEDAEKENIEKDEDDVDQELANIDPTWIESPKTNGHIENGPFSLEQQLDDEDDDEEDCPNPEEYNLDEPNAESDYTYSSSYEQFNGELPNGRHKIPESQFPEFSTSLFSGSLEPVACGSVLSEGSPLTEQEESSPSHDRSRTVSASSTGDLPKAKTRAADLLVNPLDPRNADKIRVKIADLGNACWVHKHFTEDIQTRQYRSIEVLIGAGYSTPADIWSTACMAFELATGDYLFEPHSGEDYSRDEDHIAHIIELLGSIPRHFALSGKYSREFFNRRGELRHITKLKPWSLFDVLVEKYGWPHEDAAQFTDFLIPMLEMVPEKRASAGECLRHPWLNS
Procedure, shortened: as §1

IRAK1 = IRAK1 (Homo sapiens, UniProt P51617)
Procedure, shortened: as §1

T1 sequence (P21127 whole entry): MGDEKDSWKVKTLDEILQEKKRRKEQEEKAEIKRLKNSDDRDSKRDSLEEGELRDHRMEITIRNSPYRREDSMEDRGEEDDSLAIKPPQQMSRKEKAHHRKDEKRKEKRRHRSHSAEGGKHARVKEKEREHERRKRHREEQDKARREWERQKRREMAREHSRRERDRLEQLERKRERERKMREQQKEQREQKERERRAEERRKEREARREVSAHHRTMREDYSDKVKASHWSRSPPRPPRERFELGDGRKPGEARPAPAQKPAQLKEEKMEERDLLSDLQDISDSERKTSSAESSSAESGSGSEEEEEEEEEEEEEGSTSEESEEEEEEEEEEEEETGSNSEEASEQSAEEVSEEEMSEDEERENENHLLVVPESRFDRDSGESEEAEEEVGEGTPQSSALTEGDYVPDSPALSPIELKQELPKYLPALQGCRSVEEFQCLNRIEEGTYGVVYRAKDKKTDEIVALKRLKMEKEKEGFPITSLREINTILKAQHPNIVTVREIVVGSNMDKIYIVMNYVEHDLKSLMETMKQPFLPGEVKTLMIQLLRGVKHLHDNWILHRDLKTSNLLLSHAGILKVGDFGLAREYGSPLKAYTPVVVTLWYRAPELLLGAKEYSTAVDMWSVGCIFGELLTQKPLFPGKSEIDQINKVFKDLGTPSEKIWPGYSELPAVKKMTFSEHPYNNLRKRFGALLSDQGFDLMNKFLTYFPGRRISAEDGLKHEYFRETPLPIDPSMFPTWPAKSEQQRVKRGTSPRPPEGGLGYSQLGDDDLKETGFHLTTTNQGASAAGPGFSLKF

inhibition at 1 µM (CDC2L1): 7%
inhibition at 1 µM (ASK2): 0%
inhibition at 1 µM (AKT3): 4%
inhibition at 1 µM (IRAK3): 3%
inhibition at 1 µM (MST4): 13%
inhibition at 1 µM (CAMK2B): 0%
inhibition at 1 µM (TIE1): 11%
inhibition at 1 µM (MRCKB): 1%
inhibition at 1 µM (FYN): 0%
inhibition at 1 µM (p38-delta): 17%
inhibition at 1 µM (PIM3): 3%
inhibition at 1 µM (SIK2): 4%
inhibition at 1 µM (TNK2): 0%
inhibition at 1 µM (PAK2): 14%
inhibition at 1 µM (MARK3): 0%
inhibition at 1 µM (BRAF(V600E)): 24%
inhibition at 1 µM [1]: 33%
inhibition at 1 µM [2]: 0%
inhibition at 1 µM (KIT(A829P)): 42%
inhibition at 1 µM (ULK2): 9%
inhibition at 1 µM (BLK): 0%
inhibition at 1 µM (YANK1): 0%
inhibition at 1 µM (SRPK2): 16%
inhibition at 1 µM (IRAK1): 11%
SMILES: CNS(=O)(=O)c1ccc(N(C)C)c(Nc2nc(C)nc3cc(OC)c(OC)cc23)c1 [compound 15, 3-((6,7-dimethoxy-2-methylquinazolin-4-yl)amino)-4-(dimethylamino)-N-methylbenzenesulfonamide]
